# Laboratory results as given in patent publication US20220204498A1, “PYRIDO-PYRIMIDINYL COMPOUNDS AND METHODS OF USE” (Genentech, Inc., priority 2019, published 2022).
# Structures can show the parent of a compound that is named as a salt.
# Target: T1, IRE1α (Homo sapiens, UniProt O75460, D688N)
# T1 construct: containing the kinase and RNase domains (KR, AA G547-1L977, D688N); made in house; host or cells: Sf9 insect cells
# Experiment: IRE1α TR-FRET competition binding assay (IRE1α HTRF)
# Conditions: His-tagged IRE1α kinase dead construct (KR, D688N) 0.25 nM; Alexa fluor 647-labeled ATP competitive probe 2 nM; one hour at room temperature; read-out: IRE1α (alpha) HTRF (IC50)
# Protocol: Example 59. IRE1α TR-FRET Competition Binding Assay
# To determine the affinity of compound binding to the kinase domain of IRE1α, a time-resolved fluorescence resonance energy transfer (TR-FRET) competition assay was used.
# A His-tagged IRE1α kinase dead construct containing the kinase and RNase domains (KR, AA G547-1L977, D688N) was expressed in Sf9 insect cells. The purified protein (final concentration 0.25 nM) was pre-incubated with anti-His Europium labeled antibody (Life Technologies PV5596, final concentration 2 nM) for one hour at 4° C. in TR-FRET Assay Buffer (50 mM HEPES, pH 7.5, 10 mM MgCl2, 0.083 mM Brij 35, 1 mM DTT, and 0.1% bovine gamma globulin) prior to addition to test compounds. An Alexa fluor 647-labeled probe based on an ATP competitive inhibitor was added to a final concentration of 2 nM. Reactions were carried out for one hour at room temperature in a final volume of 20 μL in 384 well white ProxiPlates (Perkin Elmer 6008289). Binding of the probe to the IRE1α protein was detected in an Envision instrument (PerkinElmer) equipped with a TRF laser option and a LANCE/Delfia Dual/Bias D400/D630 mirror (Ex 347 nm, 1st Em 665 nm, 2nd Em 615 nm).
# T1 sequence (O75460 547-977 D688N): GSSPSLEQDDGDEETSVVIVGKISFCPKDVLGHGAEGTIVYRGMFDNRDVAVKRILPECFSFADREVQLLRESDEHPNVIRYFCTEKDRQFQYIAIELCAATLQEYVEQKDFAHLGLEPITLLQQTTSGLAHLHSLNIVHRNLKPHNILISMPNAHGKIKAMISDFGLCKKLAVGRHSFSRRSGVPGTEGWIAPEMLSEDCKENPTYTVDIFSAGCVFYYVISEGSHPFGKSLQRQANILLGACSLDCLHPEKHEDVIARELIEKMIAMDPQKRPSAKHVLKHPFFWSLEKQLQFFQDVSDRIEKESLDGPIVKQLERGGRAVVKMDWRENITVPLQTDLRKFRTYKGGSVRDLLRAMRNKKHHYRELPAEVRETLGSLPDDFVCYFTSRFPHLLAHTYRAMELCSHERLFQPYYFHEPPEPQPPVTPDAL
row,Structure (SMILES),IC50
1,"Cc1cc(-c2ccc(NS(=O)(=O)Cc3ccc(F)cc3F)c(F)c2)nc2cnc(N[C@@H]3CNC[C@@H](F)C3)nc12 [Compound 115, 1-(2,4-Difluorophenyl)-N-(2-fluoro-4-(2-(((3S,5S)-5-fluoropiperidin-3-yl)amino)-8-methylpyrido[3,2-d]pyrimidin-6-yl)phenyl)methanesulfonamide]",0.26 nM
2,"CC(C)c1cc(-c2ccc(NS(=O)(=O)CCC(F)(F)F)c(F)c2)nc2cnc(N[C@H]3CC[C@H](N(C)C)CC3)nc12 [Compound 124, N-(4-(2-(((1,4-trans)-4-(Dimethylamino)cyclohexyl)amino)-8-isopropylpyrido[3,2-d]pyrimidin-6-yl)-2-fluorophenyl)-3,3,3-trifluoropropane-1-sulfonamide]",0.16 nM
3,"CCc1cc(-c2ccc(NS(=O)(=O)c3ccccc3Cl)nc2OC)nc2cnc(N[C@H]3CC[C@H](N(C)C)CC3)nc12 [Compound 141, 2-Chloro-N-(5-(2-(((1,4-trans)-4-(dimethylamino)cyclohexyl)amino)-8-ethylpyrido[3,2-d]pyrimidin-6-yl)-6-methoxypyridin-2-yl)benzenesulfonamide]",0.43 nM
4,"Cc1cc(-c2ccc(NS(=O)(=O)Cc3ccc(F)cc3)c(F)c2F)nc2cnc(N[C@H]3CC[C@H](N(C)C)CC3)nc12 [Compound 132, N-(4-(2-(((1,4-trans)-4-(Dimethylamino)cyclohexyl)amino)-8-methylpyrido[3,2-d]pyrimidin-6-yl)-2,3-difluorophenyl)-1-(4-fluorophenyl)methanesulfonamide]",0.23 nM
5,"O=S(=O)(Cc1ccccc1)Nc1c(F)cc(-c2cc3cnc(N[C@@H]4CNC[C@@H](F)C4)nc3nc2OC2CCOC2)c(F)c1F (single isomer, unassigned) [Compound 105]",0.39 nM
6,"Cc1cc(-c2ccc(NS(=O)(=O)CCC(F)(F)F)nc2)nc2cnc(N[C@H]3CC[C@H](N(C)C)CC3)nc12 [Compound 125, N-(5-(2-(((1,4-trans)-4-(Dimethylamino)cyclohexyl)amino)-8-methylpyrido[3,2-d]pyrimidin-6-yl)pyridin-2-yl)-3,3,3-trifluoropropane-1-sulfonamide]",0.44 nM

# The next lines start with the values.
row,IC50,Structure (SMILES)
1,22 nM,"COc1cc(-c2ccc(NS(=O)(=O)CCC(F)(F)F)c(F)c2)nc2cnc(N[C@H]3CC[C@H](N(C)C)CC3)nc12 [Compound 118, N-(4-(2-(((1,4-trans)-4-(Dimethylamino)cyclohexyl)amino)-8-methoxypyrido[3,2-d]pyrimidin-6-yl)-2-fluorophenyl)-3,3,3-trifluoropropane-1-sulfonamide formate]"
2,0.15 nM,"Cc1cc(-c2ccc(NS(=O)(=O)c3ccccc3C#N)c(F)c2)nc2cnc(N[C@H]3CC[C@H](N(C)C)CC3)nc12 [Compound 150, 2-Cyano-N-[(1,4-trans)-4-[2-[[4-(dimethylamino)cyclohexyl]amino]-8-methyl-pyrido[3,2-d]pyrimidin-6-yl]-2-fluoro-phenyl]benzenesulfonamide]"
3,0.33 nM,"CCc1cc(-c2ccc(NS(=O)(=O)c3ccccc3Cl)nc2C)nc2cnc(N[C@H]3CC[C@H](N(C)C)CC3)nc12 [Compound 134, 2-Chloro-N-(5-(2-(((1,4-trans)-4-(dimethylamino)cyclohexyl)amino)-8-ethylpyrido[3,2-d]pyrimidin-6-yl)-6-methylpyridin-2-yl)benzenesulfonamide]"
4,0.08 nM,"CCc1cc(-c2ccc(NS(=O)(=O)CCC(F)(F)F)c(F)c2)nc2cnc(N[C@H]3CC[C@H](N(C)C)CC3)nc12 [Compound 114, N-(4-(2-(((1,4-trans)-4-(Dimethylamino)cyclohexyl)amino)-8-ethylpyrido[3,2-d]pyrimidin-6-yl)-2-fluorophenyl)-3,3,3-trifluoropropane-1-sulfonamide]"
5,0.23 nM,"Cc1cc(-c2cc(F)c(NS(=O)(=O)Cc3ccc(F)cc3)cc2F)nc2cnc(N[C@H]3CC[C@H](N(C)C)CC3)nc12 [Compound 137, N-(4-(2-(((1,4-trans)-4-(Dimethylamino)cyclohexyl)amino)-8-methylpyrido[3,2-d]pyrimidin-6-yl)-2,5-difluorophenyl)-1-(4-fluorophenyl)methanesulfonamide]"
